Key:
[1] = system: MV-4-11 (human, Acute Myeloid Leukemia cell line) cells; test: Cell growth inhibition assay, GI50 of MV-4-11; type: cell-based; settings: Homo sapiens, MV4-11, 72 h, MV-4-11 cells
How it was run: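 GI50 derived from 490 nm absorbance using CellTiter 96 Aqueous One reagent, with compound-free medium providing the background. Human AML MV-4-11 cells, seeded at 5×10^4 per well in IMDM/10% FBS, incubated 72 h at 37 °C with duplicate serial dilutions of test compound.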

[2] = target: cDNA-expressed human hepatic CYP3A4 (Homo sapiens (Human), UniProt P08684); test: Measurement of CYP (IC50 of P450 CYP3A4), BFC substrate; type: in vitro ADME; settings: 20 minutes
How it was run: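 cDNA-expressed human CYP3A4 supersomes in 0.1M potassium phosphate pH 7.4 with 8.3 mM MgCl2, 1.67 mM EDTA and 0.25 mM NADPH; compounds in acetonitrile (<1% final). Reaction started with 30 µM BFC, 20 min at 37. 7-Hydroxy-4-trifluoromethyl-coumarin read by fluorescence (ex 409/em 530 nm).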

Chain of cDNA-expressed human hepatic CYP3A4 (P08684 whole entry): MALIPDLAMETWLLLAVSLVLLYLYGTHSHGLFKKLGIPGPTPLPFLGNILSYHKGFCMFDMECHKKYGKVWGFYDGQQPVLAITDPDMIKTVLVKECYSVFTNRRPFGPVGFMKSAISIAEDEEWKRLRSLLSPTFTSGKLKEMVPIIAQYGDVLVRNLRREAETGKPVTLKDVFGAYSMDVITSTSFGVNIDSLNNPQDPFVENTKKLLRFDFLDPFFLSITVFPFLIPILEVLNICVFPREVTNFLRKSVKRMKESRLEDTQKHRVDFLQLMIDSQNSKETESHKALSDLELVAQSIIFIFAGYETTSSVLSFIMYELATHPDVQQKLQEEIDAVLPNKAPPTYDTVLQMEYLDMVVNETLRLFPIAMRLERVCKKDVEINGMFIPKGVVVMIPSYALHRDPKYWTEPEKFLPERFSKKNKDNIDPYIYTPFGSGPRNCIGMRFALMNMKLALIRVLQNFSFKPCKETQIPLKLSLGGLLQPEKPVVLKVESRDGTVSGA

SMILES | GI50 [1] [nM] | IC50 [2] [nM]
C=CCN1CC(=O)N2[C@@H](Cc3ccc(O)cc3)C(=O)N(Cc3cccc4c(-c5ccc(C(=O)NNC(C)(C)C)cc5)cn(C)c34)C[C@@H]2N1C(=O)NCc1ccccc1 [Compound D-34] | 1.2 | 3410
C=CCN1CC(=O)N2[C@@H](Cc3ccc(O)cc3)C(=O)N(Cc3cccc4c(-c5ccc(NC(=O)Nc6ccc(OC)cc6)cc5)cn(C)c34)C[C@@H]2N1C(=O)NCc1ccccc1 [Compound D-76] | 15.8 | 9480
C=CCN1CC(=O)N2[C@@H](Cc3ccc(O)cc3)C(=O)N(Cc3cccc4c(-c5ccc(NC(=O)c6ccc(OC)cc6)cc5)cn(C)c34)C[C@@H]2N1C(=O)NCc1ccccc1 [Compound D-49] | 10 | > 25000
C=CCN1CC(=O)N2[C@@H](Cc3ccc(O)cc3)C(=O)N(Cc3cccc4c(-c5ccc(C(=O)Nc6cccc(O)c6)cc5)cn(C)c34)C[C@@H]2N1C(=O)NCc1ccccc1 [Compound D-16] | 15.6 | 8070
C=CCN1CC(=O)N2[C@@H](Cc3ccc(O)cc3)C(=O)N(Cc3cccc4c(-c5ccc(NC(=O)c6ccc(N)cc6)cc5)cn(C)c34)C[C@@H]2N1C(=O)NCc1ccccc1 [Compound D-50] | 2 | > 25000
C=CCN1CC(=O)N2[C@@H](Cc3ccc(O)cc3)C(=O)N(Cc3cccc4c(-c5ccc(NC(=O)N6CCN(S(C)(=O)=O)CC6)nc5)cn(C)c34)C[C@@H]2N1C(=O)NCc1ccccc1 [Compound D-97] | 2.2 | 6400
C=CCN1CC(=O)N2[C@@H](Cc3ccc(O)cc3)C(=O)N(Cc3cccc4c(-c5ccc(NC(=O)N6CCOCC6)nc5)cn(C)c34)C[C@@H]2N1C(=O)NCc1ccccc1 [Compound D-88] | 1.2 | 10200
C=CCN1CC(=O)N2[C@@H](Cc3ccc(O)cc3)C(=O)N(Cc3cccc4c(-c5ccc(NC(=O)N6CCOCC6)cc5)cn(C)c34)C[C@@H]2N1C(=O)NCc1ccccc1 [Compound D-59] | 1.2 | 2190
C=CCN1CC(=O)N2[C@@H](Cc3ccc(O)cc3)C(=O)N(Cc3cccc4c(-c5ccc(NC(=O)c6ccc(NC)cc6)cc5)cn(C)c34)C[C@@H]2N1C(=O)NCc1ccccc1 [Compound D-56] | 12.5 | > 25000

The next lines start with the values.

GI50 [1] [nM] | IC50 [2] [nM] | SMILES
1.6 | 5650 | C=CCN1CC(=O)N2[C@@H](Cc3ccc(O)cc3)C(=O)N(Cc3cccc4c(C(=O)NC5CCN(C(=O)OC(C)(C)C)CC5)cn(C)c34)C[C@@H]2N1C(=O)NCc1ccccc1 [Compound F-61]
15.4 | 2530 | C=CCN1CC(=O)N2[C@@H](Cc3ccc(O)cc3)C(=O)N(Cc3cccc4c(C(=O)N(C)CC5(CO)CC5)cn(C)c34)C[C@@H]2N1C(=O)NCc1ccccc1 [Compound F-9]
20.4 | 6090 | C=CCN1CC(=O)N2[C@@H](Cc3ccc(O)cc3)C(=O)N(Cc3cccc4c(C(=O)N5CCN(CCN6CCOCC6)CC5)cn(C)c34)C[C@@H]2N1C(=O)NCc1ccccc1 [Compound E-25]
1.2 | 6750 | C=CCN1CC(=O)N2[C@@H](Cc3ccc(O)cc3)C(=O)N(Cc3cccc4c(C(=O)Nc5ccc(N(C)C)nc5)cn(C)c34)C[C@@H]2N1C(=O)NCc1ccccc1 [Compound G-15]
1.3 | 6750 | C=CCN1CC(=O)N2[C@@H](Cc3ccc(O)cc3)C(=O)N(Cc3cccc4c(C(=O)Nc5ccc(NCCN(C)C)nc5)cn(C)c34)C[C@@H]2N1C(=O)NCc1ccccc1 [Compound G-23]
1.3 | 3970 | C=CCN1CC(=O)N2C(Cc3ccc(O)cc3)C(=O)N(Cc3cccc4c(C(=O)Nc5ccc(N6CCC(N7CCCC7)CC6)nc5)cn(C)c34)CC2N1C(=O)NCc1ccccc1 (stereo not drawn) [Compound G-51]
1.8 | 7620 | C=CCN1CC(=O)N2[C@@H](Cc3ccc(O)cc3)C(=O)N(Cc3cccc4c(C(=O)Nc5ccc(OCCOC)nc5)cn(C)c34)C[C@@H]2N1C(=O)NCc1ccccc1 [Compound G-11]
1.9 | 3860 | C=CCN1CC(=O)N2[C@@H](Cc3ccc(O)cc3)C(=O)N(Cc3cccc4c(C(=O)N5CCC(C(=O)OCC)CC5)cn(C)c34)C[C@@H]2N1C(=O)NCc1ccccc1 [Compound E-53]
2.4 | 17200 | C=CCN1CC(=O)N2[C@@H](Cc3ccc(O)cc3)C(=O)N(Cc3cccc4c(C(=O)Nc5ccc(N6CCN(C7CCCC7)CC6)nc5)cn(C)c34)C[C@@H]2N1C(=O)NCc1ccccc1 [Compound G-50]
1.3 | 7600 | C=CCN1CC(=O)N2C(CN(Cc3cccc4c(C(=O)Nc5ccc(N6CCN(C)CC6)nc5)cn(C)c34)C(=O)[C@@H]2Cc2ccc(O)cc2)N1C(=O)NCc1ccccc1 (stereo partly drawn) [Compound G-41]
1.3 | 6950 | C=CCN1CC(=O)N2C(Cc3ccc(O)cc3)C(=O)N(Cc3cccc4c(C(=O)Nc5ccc(N6CCC(O)CC6)nc5)cn(C)c34)CC2N1C(=O)NCc1ccccc1 (stereo not drawn) [Compound G-37]
5.7 | 2610 | C=CCN1CC(=O)N2[C@@H](Cc3ccc(O)cc3)C(=O)N(Cc3cccc4c(C(=O)Nc5ccc(OC)cc5)cn(C)c34)C[C@@H]2N1C(=O)NCc1ccccc1 [Compound G-3]
11.3 | 2240 | C=CCN1CC(=O)N2[C@@H](Cc3ccc(O)cc3)C(=O)N(Cc3cccc4c(C(=O)N5CCN(C(C)C)CC5)cn(C)c34)C[C@@H]2N1C(=O)NCc1ccccc1 [Compound E-7]
1.3 | 2370 | C=CCN1CC(=O)N2C(Cc3ccc(O)cc3)C(=O)N(Cc3cccc4c(C(=O)Nc5ccc(N6CCC(N7CCCCC7)CC6)nc5)cn(C)c34)CC2N1C(=O)NCc1ccccc1 (stereo not drawn) [Compound G-55]
10.8 | 9120 | C=CCN1CC(=O)N2[C@@H](Cc3ccc(O)cc3)C(=O)N(Cc3cccc4c(C(=O)N5CCN(CCOC)CC5)cn(C)c34)C[C@@H]2N1C(=O)NCc1ccccc1 [Compound E-10]
2.2 | 6400 | C=CCN1CC(=O)N2C(Cc3ccc(O)cc3)C(=O)N(Cc3cccc4c(-c5ccc(NC(=O)N6CCN(S(C)(=O)=O)CC6)nc5)cn(C)c34)CC2N1C(=O)NCc1ccccc1 (stereo not drawn) [Compound G-68]
0.6 | 2210 | C=CCN1CC(=O)N2[C@@H](Cc3ccc(O)cc3)C(=O)N(Cc3cccc4c(C(=O)Nc5ccc(N6CCC(OC)CC6)nc5)cn(C)c34)C[C@@H]2N1C(=O)NCc1ccccc1 [Compound G-38]
1.3 | 6320 | C=CCN1CC(=O)N2[C@@H](Cc3ccc(O)cc3)C(=O)N(Cc3cccc4c(C(=O)Nc5ccc(N6CCC(N7CCN(C)CC7)CC6)nc5)cn(C)c34)C[C@@H]2N1C(=O)NCc1ccccc1 [Compound G-57]
1.3 | 6040 | C=CCN1CC(=O)N2C(Cc3ccc(O)cc3)C(=O)N(Cc3cccc4c(C(=O)Nc5ccc(N6CCN(CCO)CC6)nc5)cn(C)c34)CC2N1C(=O)NCc1ccccc1 (stereo not drawn) [Compound G-44]
1.4 | 4100 | C=CCN1CC(=O)N2[C@@H](Cc3ccc(O)cc3)C(=O)N(Cc3cccc4c(C(=O)Nc5ccc(N6CC(N7CCN(C)CC7)C6)nc5)cn(C)c34)C[C@@H]2N1C(=O)NCc1ccccc1 [Compound G-62]
11.2 | 12200 | C=CCN1CC(=O)N2[C@@H](Cc3ccc(O)cc3)C(=O)N(Cc3cccc4c(C(=O)N5CCN(C)CC5)cn(C)c34)C[C@@H]2N1C(=O)NCc1ccccc1 [Compound E-4]

Source: US8940739B2, “Compound of a reverse-turn mimetic and a production method and use therefor” (JW Pharmaceutical Corporation, priority 2010, dated 2015)
